# Tested on: endometriosis lesions
# Test: Ex vivo clinical evaluation of endometriosis lesions (intraperitoneal uterine horn implants) in syngenic mice
# Settings: estradiol at D-1, implants at D0, nanosuspension (50 mg/mL) i.v. 100 mg/kg/BW every 2 days from D7 to D21, sacrificed at D23, versus control group (Vehicle)
# Experimental: FIG. 2: Ex vivo clinical evaluation (implant volume (mm^3) and weight (g)) in syngenic mice.
# Example 1: Echographic and Ex Vivo Evaluation of Endometriosis Lesions in Syngenic Mice Treated with Compound 38
# More particularly, 20 syngenic mices were engraved estradiol at D-1. Intraperitoneal Uterine Horsn implant have been implanted in each mouse at DO. A nanosuspension of compound 38 (50 mg/mL) has been intravenously administered in 10 mice (treated group) at a 100 mg/kg/BW dose from D7 to D21 every 2 days.
# Mices have been sacrified at D23 and implants have been removed for ex vivo clinical evaluation.
smiles,measurement,value
"COc1ccc(C#N)cc1/C=C(\C#N)c1c[nH]c2ccc(Br)cc12 [Compound 38, (Z)-3-(2-(5-bromo-1H-indol-3-yl)-2-cyanovinyl)-4-methoxybenzonitrile]",implant volume,lower than those of the control group
same,implant weight,lower than those of the control group

# — patent publication US10624876B2, “Derivatives of indole for the treatment of endometriosis” (BIOKINESIS, priority 2016, dated 2020)
